In PubChem BioAssay AID1259407 (Chemical Carcinogenesis Research Information System (CCRIS), 2018) one finds mutagenic call data, which are given here for 6 molecules.

Active and inactive are the calls of the source. The rule behind the calls is not given here.

This series concerns CCRIS mutagenicity, Ames/micronucleus/aberration tests. As to the kind of experiment: CCRIS mutagenicity studies.
Where [1] appears, read: Test System: AMES SALMONELLA TYPHIMURIUM, Strain/Indicator: TA98, Metabolic Activation: NONE, Method: PREINCUBATION
The mark [2] stands for this setting: Test System: AMES SALMONELLA TYPHIMURIUM, Strain/Indicator: TA98, Metabolic Activation: NONE, Method: STANDARD PLATE.
Setting [3] is: Test System: AMES SALMONELLA TYPHIMURIUM, Strain/Indicator: TA98, Metabolic Activation: RAT, LIVER, S-9, AROCLOR 1254, Method: STANDARD PLATE.
Where [4] appears, read: Test System: AMES SALMONELLA TYPHIMURIUM, Strain/Indicator: TA98, Metabolic Activation: RAT, LIVER, S-9, PCB, Method: PREINCUBATION
Setting [5] is: Test System: AMES SALMONELLA TYPHIMURIUM, Strain/Indicator: TA100, Metabolic Activation: NONE, Method: PREINCUBATION
Setting [6] is: Test System: AMES SALMONELLA TYPHIMURIUM, Strain/Indicator: TA100, Metabolic Activation: NONE, Method: STANDARD PLATE.
Where [7] appears, read: Test System: AMES SALMONELLA TYPHIMURIUM, Strain/Indicator: TA100, Metabolic Activation: RAT, LIVER, S-9, AROCLOR 1254, Method: STANDARD PLATE.
The mark [8] stands for this setting: Test System: AMES SALMONELLA TYPHIMURIUM, Strain/Indicator: TA100, Metabolic Activation: RAT, LIVER, S-9, PCB, Method: PREINCUBATION
[9] abbreviates: Test System: AMES SALMONELLA TYPHIMURIUM, Strain/Indicator: TA1535, Metabolic Activation: NONE, Method: STANDARD PLATE.
The mark [10] stands for this setting: Test System: AMES SALMONELLA TYPHIMURIUM, Strain/Indicator: TA1535, Metabolic Activation: RAT, LIVER, S-9, AROCLOR 1254, Method: STANDARD PLATE.
Setting [11] is: Test System: AMES SALMONELLA TYPHIMURIUM, Strain/Indicator: TA1537, Metabolic Activation: NONE, Method: PREINCUBATION
Where [12] appears, read: Test System: AMES SALMONELLA TYPHIMURIUM, Strain/Indicator: TA1537, Metabolic Activation: NONE, Method: STANDARD PLATE.
Setting [13] is: Test System: AMES SALMONELLA TYPHIMURIUM, Strain/Indicator: TA1537, Metabolic Activation: RAT, LIVER, S-9, AROCLOR 1254, Method: STANDARD PLATE.
[14] abbreviates: Test System: AMES SALMONELLA TYPHIMURIUM, Strain/Indicator: TA1538, Metabolic Activation: NONE, Method: STANDARD PLATE.
Where [15] appears, read: Test System: AMES SALMONELLA TYPHIMURIUM, Strain/Indicator: TA1538, Metabolic Activation: RAT, LIVER, S-9, AROCLOR 1254, Method: STANDARD PLATE.

Turning to `NCc1cccc(CN)c1`, the mutagenic call is, setting by setting: (Test System: AMES SALMONELLA TYPHIMURIUM, Strain/Indicator: TA98, Metabolic Activation: HAMSTER, LIVER, S-9, AROCLOR 1254, Method: STANDARD PLATE) “inactive; negative”; under setting [1], “inactive; negative”; under setting [2], “inactive; negative”; under setting [3], “inactive; negative”; under setting [4], “inactive; negative”; (Test System: AMES SALMONELLA TYPHIMURIUM, Strain/Indicator: TA98, Metabolic Activation: RAT, LIVER, S-9, PHENOBARBITAL AND BETA-NAPHTHOFLAVONE, Method: PREINCUBATION) “inactive; negative”. Besides, the mutagenic call reads like this: (Test System: AMES SALMONELLA TYPHIMURIUM, Strain/Indicator: TA100, Metabolic Activation: HAMSTER, LIVER, S-9, AROCLOR 1254, Method: STANDARD PLATE) “inactive; negative”; under setting [5], “inactive; negative”; under setting [6], “inactive; negative”; under setting [7], “inactive; negative”; under setting [8], “inactive; negative”; (Test System: AMES SALMONELLA TYPHIMURIUM, Strain/Indicator: TA100, Metabolic Activation: RAT, LIVER, S-9, PHENOBARBITAL AND BETA-NAPHTHOFLAVONE, Method: PREINCUBATION) “inactive; negative”. Moreover, the mutagenic call runs as follows: (Test System: AMES SALMONELLA TYPHIMURIUM, Strain/Indicator: TA102, Metabolic Activation: NONE, Method: PREINCUBATION) “inactive; negative”; (Test System: AMES SALMONELLA TYPHIMURIUM, Strain/Indicator: TA102, Metabolic Activation: RAT, LIVER, S-9, SODIUM PHENOBARBITAL AND 5,6-BENZOFLAVONE, Method: PREINCUBATION) “inactive; negative”; (Test System: AMES SALMONELLA TYPHIMURIUM, Strain/Indicator: TA104, Metabolic Activation: NONE, Method: PREINCUBATION) “inactive; negative”; (Test System: AMES SALMONELLA TYPHIMURIUM, Strain/Indicator: TA104, Metabolic Activation: RAT, LIVER, S-9, SODIUM PHENOBARBITAL AND 5,6-BENZOFLAVONE, Method: PREINCUBATION) “inactive; negative”; (Test System: AMES SALMONELLA TYPHIMURIUM, Strain/Indicator: TA1535, Metabolic Activation: HAMSTER, LIVER, S-9, AROCLOR 1254, Method: STANDARD PLATE) “inactive; negative”; (Test System: AMES SALMONELLA TYPHIMURIUM, Strain/Indicator: TA1535, Metabolic Activation: NONE, Method: PREINCUBATION) “inactive; negative”. Also, the mutagenic call by setting is: under setting [9], “inactive; negative”; under setting [10], “inactive; negative”; (Test System: AMES SALMONELLA TYPHIMURIUM, Strain/Indicator: TA1535, Metabolic Activation: RAT, LIVER, S-9, PHENOBARBITAL AND BETA-NAPHTHOFLAVONE, Method: PREINCUBATION) “inactive; negative”; (Test System: AMES SALMONELLA TYPHIMURIUM, Strain/Indicator: TA1537, Metabolic Activation: HAMSTER, LIVER, S-9, AROCLOR 1254, Method: STANDARD PLATE) “inactive; negative”; under setting [11], “inactive; negative”; under setting [12], “inactive; negative”. For the same molecule, the mutagenic call under setting [13] is “inactive; negative”; the mutagenic call (Test System: AMES SALMONELLA TYPHIMURIUM, Strain/Indicator: TA1537, Metabolic Activation: RAT, LIVER, S-9, PHENOBARBITAL AND BETA-NAPHTHOFLAVONE, Method: PREINCUBATION) was “inactive; negative”; the mutagenic call (Test System: AMES SALMONELLA TYPHIMURIUM, Strain/Indicator: TA1538, Metabolic Activation: HAMSTER, LIVER, S-9, AROCLOR 1254, Method: STANDARD PLATE) was “inactive; negative”; the mutagenic call under setting [14] was “inactive; negative”; the mutagenic call under setting [15] is “inactive; negative”; the mutagenic call (Test System: E. COLI, Strain/Indicator: WP2UVRA/PKM101, Metabolic Activation: NONE, Method: PREINCUBATION) is “inactive; negative”. The mutagenic call is, setting by setting: (Test System: E. COLI, Strain/Indicator: WP2UVRA/PKM101, Metabolic Activation: RAT, LIVER, S-9, PHENOBARBITAL AND BETA-NAPHTHOFLAVONE, Method: PREINCUBATION) “inactive; negative”; (Test System: E. COLI, Strain/Indicator: WP2UVRA/PKM101, Metabolic Activation: RAT, LIVER, S-9, SODIUM PHENOBARBITAL AND 5,6-BENZOFLAVONE, Method: PREINCUBATION) “inactive; negative”; (Test System: E. COLI, Strain/Indicator: WP2UVRA, Metabolic Activation: NONE, Method: PREINCUBATION) “inactive; negative”; (Test System: E. COLI, Strain/Indicator: WP2UVRA, Metabolic Activation: RAT, LIVER, S-9, PHENOBARBITAL AND BETA-NAPHTHOFLAVONE, Method: PREINCUBATION) “inactive; negative”; (Test System: E. COLI, Strain/Indicator: WP2UVRA, Metabolic Activation: RAT, LIVER, S-9, SODIUM PHENOBARBITAL AND 5,6-BENZOFLAVONE, Method: PREINCUBATION) “inactive; negative”; (Test System: MOUSE LYMPHOMA, Strain/Indicator: L5178Y (TK+/TK-), Metabolic Activation: NONE, Method: SUSPENSION/PLATE) “inactive; negative. reevaluation of results: negative”. Where the note is “Test System: MOUSE LYMPHOMA, Strain/Indicator: L5178Y (TK+/TK-), Metabolic Activation: RAT, LIVER, S-9, AROCLOR 1254, Method: SUSPENSION/PLATE”, the mutagenic call was “inactive; negative. reevaluation of results: negative”.

As for `CC(C)CCC[C@@H](C)[C@H]1CC[C@H]2[C@@H]3[C@H](OO)C=C4C[C@@H](O)CC[C@]4(C)[C@H]3CC[C@]12C`, the mutagenic call under setting [11] was “active; positive”.

For `CCc1nc2ccc(NC)c(C)c2nc1CC`, the mutagenic call runs as follows: under setting [1], “inactive; negative”; under setting [4], “active; positive”; under setting [5], “inactive; negative”; under setting [8], “active; positive”.

In the case of `Nc1ccc(Cl)c(C(F)(F)F)c1`, the mutagenic call is “inactive; negative” under setting [2]; “inactive; negative” under setting [3]; “inactive; negative” under setting [6]; “inactive; negative” under setting [7]; “inactive; negative” under setting [9]; “inactive; negative” under setting [10]. The mutagenic call by setting is: under setting [12], “inactive; negative”; under setting [13], “inactive; negative”; under setting [14], “inactive; negative”; under setting [15], “inactive; negative”.

Take `O=c1ccc2cc3cc4cccc5ccc(c2c1)c3c54`: the mutagenic call under setting [2] is “inactive; negative”, the mutagenic call under setting [3] is “inactive; negative” and the mutagenic call under setting [7] is “active; positive”.

In the case of `c1cc2c3c(c1)ccc1cccc(c13)C1OC21` (stereo not drawn), the mutagenic call reads like this: (Test System: CHINESE HAMSTER OVARY, Strain/Indicator: CHO (HGPRT)/6-THIOGUANINE, Metabolic Activation: NONE, Method: STANDARD PLATE) “active; positive”; (Test System: CHINESE HAMSTER OVARY, Strain/Indicator: CHO (HGPRT)/6-THIOGUANINE, Metabolic Activation: RAT, LIVER, S-9, AROCLOR 1254, Method: STANDARD PLATE) “inactive; negative”; (Test System: UDS RODENT HEPATOCYTES, Strain/Indicator: THY INCORP, Metabolic Activation: NONE, Method: AUTORADIOGRAPHY) “active; positive”.
